pIC50: −log10 of the molar value. Where “and” joins values, the source holds several entries; their conditions need not be identical. Equal entries are not always repeated.
Tested on: 922993-354-T-J3-PDC complex spheroid viability
Experiment: Anticancer human tumor 922993-354-T-J3-PDC patient-derived endometrial carcinoma cell line growth inhibition [POLQ]
Settings: for viability, T/C: stronger effect = lower value
Method: Multicellular complex tumor spheroid response to Polymerase (POL) inhibitors (novobiocin, ART-558, RP6685) in combination with a variety of drugs and investigational agents in selected tumor cell lines
The POL inhibitors (novobiocin, ART-558, and RP6685) were evaluated both individually and in combination with standard of care and investigational anticancer small molecules within a complex spheroid model of solid tumors. . Complex spheroids include a stromal component modeled by human endothelial cells (HUVEC) and fibroblasts modeled by human mesenchymal stem cells (MSCs). The concentration ranges selected for each drug and investigational agent were based upon clinically achievable concentrations if the clinical Cmax of the agent was known.
Compounds. The drugs and investigational agents: novobiocin (NSC847541), ART-558 (NSC835418), RP-6685 (NSC848927), peposertib (NSC802822), ceralasertib (NSC780249), elimusertib (NSC800525), camonsertib (NSC841442), AZD-1390 (NSC803789), olaparib (NSC753686), talazoparib (NSC767125), rucaparib (NSC756644), sotorasib (NSC818433), MRTX-1133 (NSC836407), SN-38 (NSC673596), topotecan (NSC609699), epotoside (NSC141540), doxorubicin (NSC123127), gemcitabine (NSC613327), 5-fluorouracil (NSC19893), paclitaxel (NSC125973), vemurafenib (NSC761431), MSA-2 (NSC828583), SN-011 (NSC837082), adavosertib (NSC754352), prexasertib (NSC758257), carboplatin (NSC241240) and oxaliplatin (NSC266046), were obtained from the National Cancer Institute (NCI) Developmental Therapeutics Program Chemical Repository (21). The FDA-approved anticancer drug set is available from the Developmental Therapeutics Program at https://dtp.cancer.gov/organization/dscb/obtaining/. […] The stock solutions were prepared in dimethyl sulfoxide (DMSO, Sigma-Aldrich, St. Louis, MO, cat. D2650), except for the platinum compounds which were prepared in saline (Quality Biological, Gaithersburg, MD, cat. 114-055-101), at 800-fold the tested concentration and stored at -70 degrees C prior to their use. All drugs and investigational agents were tested over a range starting from a high concentration at or near the clinical Cmax and decreasing in half-log increments. If the clinical Cmax for an agent had not been determined, the highest concentration tested was 10 microM, except for SN-38, which was tested at a high concentration of 1 microM.
Cell Culture. All cells were maintained in an incubator at 37 degrees C and 5% CO2 with 95% humidity. The PDC lines were cultured according to standard operating procedures established by the NCI PDMR (https://pdmr.cancer.gov). Table 3 of the manuscript, lists the cell lines along with the number of the three cell types plated to form the mct-spheroids and media for tumor cell growth. After thawing, all PDC lines, except 997537-175-T-J1-PDC and 415267-285-R-J2-PDC, were cultured in Matrigel-coated flasks prepared with a working solution of 1X Ham's F-12 nutrient mix, without supplementation (Thermo Fisher Scientific, cat. 11765054), 100 U/mL penicillin-streptomycin (Thermo Fisher Scientific, cat. 15140122), and 2.5% Matrigel (Corning Inc., Corning, NY, cat. 354248) for the first three passages. The two PDC lines 997537-175-T-J1-PDC and 415267-285-R-J2-PDC were cultured on uncoated flasks. The 857933-349-R-J2-PDC line was cultured in 6C/Colon 1B media containing advanced DMEM/F-12 (Thermo Fisher Scientific, cat. 12634028), 10 mM HEPES (Thermo Fisher Scientific, cat. 15630080), 1X GlutaMAX supplement (Thermo Fisher Scientific, cat. 35050061), 0.1 mg/mL primocin (InvivoGen, San Diego, CA, cat. ant-pm-2), 10% defined fetal bovine serum, heat inactivated (HyClone Laboratories Inc., Logan, UT, cat. SH30070.03HI), 50% L-WRN conditioned media (ATCC, cat. CRL-3276), 1.25 mM N-Acetyl-L-cysteine (Sigma-Aldrich, cat. A9165), 10 mM nicotinamide (Sigma-Aldrich, cat. N0636), 1X B-27 supplement (Thermo Fisher Scientific, cat. 17504044), 1X N-2 supplement (Thermo Fisher Scientific, cat. […]

[1] = curve of first compound, second compound 0.0316 µM
[2] = curve of first compound, second compound 0.1 µM
[3] = curve of first compound, second compound 0.316 µM
[4] = curve of first compound, second compound 1 µM
[5] = curve of first compound, second compound 3.16 µM
[6] = curve of first compound, second compound 10 µM
[7] = second compound 0.0316 µM, first compound 0.0316 µM
[8] = second compound 0.0316 µM, first compound 0.1 µM
[9] = second compound 0.1 µM, first compound 0.0316 µM
[10] = second compound 0.1 µM, first compound 0.1 µM
[11] = second compound 0.316 µM, first compound 0.0316 µM
[12] = second compound 0.316 µM, first compound 0.1 µM
[13] = second compound 1 µM, first compound 0.0316 µM
[14] = second compound 1 µM, first compound 0.1 µM
[15] = second compound 3.16 µM, first compound 0.0316 µM
[16] = second compound 3.16 µM, first compound 0.1 µM
[17] = second compound 10 µM, first compound 0.0316 µM
[18] = second compound 10 µM, first compound 0.1 µM
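Note: spheroids exposed to the agents for one week.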
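Throughout, for viability, T/C: 100% = DMSO vehicle control wells.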

## CCCS(=O)(=O)Nc1ccc(F)c(C(=O)c2c[nH]c3ncc(-c4ccc(Cl)cc4)cc23)c1F
Compound 0.0316 µM
  viability, T/C: 101% and 107% and 102%
Compound 0.1 µM
  viability, T/C: 102% and 103% and 98.4%
Compound 0.316 µM
  viability, T/C: 105% and 106% and 94.1%
Compound 1 µM
  viability, T/C: 104% and 107% and 109%
Compound 3.16 µM
  viability, T/C: 97.1% and 103% and 105%
Compound 10 µM
  viability, T/C: 98.9% and 92.4% and 69.4%
Curve of compound
  pIC50: < 5.00

## CCc1c2c(nc3ccc(O)cc13)-c1cc3c(c(=O)n1C2)COC(=O)[C@]3(O)CC
Compound 0.00316 µM
  viability, T/C: 78.9% and 100% and 95.3%
Compound 0.01 µM
  viability, T/C: 51.6% and 79.5% and 29.8%
Compound 0.0316 µM
  viability, T/C: 13% and 39.8% and 14.1%
Compound 0.1 µM
  viability, T/C: 12.4% and 20.3% and 11.5%
Compound 0.316 µM
  viability, T/C: 15.2% and 19.6% and 12.8%
Compound 1 µM
  viability, T/C: 16.6% and 28.6% and 14.5%
Curve of compound
  pIC50: 7.98 and 7.64 and 8.15

## CCc1cc2c(N3CCc4c(cc(Cn5ccnc5)cc4-c4cn(C)nc4C(F)(F)F)C3=O)ccnc2c(OC)n1 + Cc1cccc(N(C)C(=O)C2C(O)CCN2c2nc(C)cc(C(F)(F)F)c2C#N)c1
[1]
  pIC50: < 5.00
[2]
  pIC50: < 5.00
[3]
  pIC50: < 5.00
[4]
  pIC50: < 5.00
[5]
  pIC50: < 5.00
[6]
  pIC50: < 5.00
[7]
  viability, T/C: 105%
[8]
  viability, T/C: 107%
Second compound 0.0316 µM, first compound 0.316 µM
  viability, T/C: 107%
Second compound 0.0316 µM, first compound 1 µM
  viability, T/C: 108%
Second compound 0.0316 µM, first compound 3.16 µM
  viability, T/C: 110%
Second compound 0.0316 µM, first compound 10 µM
  viability, T/C: 94.1%
[9]
  viability, T/C: 107%
[10]
  viability, T/C: 106%
Second compound 0.1 µM, first compound 0.316 µM
  viability, T/C: 104%
Second compound 0.1 µM, first compound 1 µM
  viability, T/C: 107%
Second compound 0.1 µM, first compound 3.16 µM
  viability, T/C: 105%
Second compound 0.1 µM, first compound 10 µM
  viability, T/C: 99%
[11]
  viability, T/C: 104%
[12]
  viability, T/C: 100%
Second compound 0.316 µM, first compound 0.316 µM
  viability, T/C: 107%
Second compound 0.316 µM, first compound 1 µM
  viability, T/C: 110%
Second compound 0.316 µM, first compound 3.16 µM
  viability, T/C: 105%
Second compound 0.316 µM, first compound 10 µM
  viability, T/C: 99.5%
[13]
  viability, T/C: 101%
[14]
  viability, T/C: 99.4%
Second compound 1 µM, first compound 0.316 µM
  viability, T/C: 108%
Second compound 1 µM, first compound 1 µM
  viability, T/C: 109%
Second compound 1 µM, first compound 3.16 µM
  viability, T/C: 102%
Second compound 1 µM, first compound 10 µM
  viability, T/C: 107%
[15]
  viability, T/C: 102%
[16]
  viability, T/C: 107%
Second compound 3.16 µM, first compound 0.316 µM
  viability, T/C: 106%
Second compound 3.16 µM, first compound 1 µM
  viability, T/C: 106%
Second compound 3.16 µM, first compound 3.16 µM
  viability, T/C: 107%
Second compound 3.16 µM, first compound 10 µM
  viability, T/C: 98.4%
[17]
  viability, T/C: 104%
[18]
  viability, T/C: 98.4%
Second compound 10 µM, first compound 0.316 µM
  viability, T/C: 98.8%
Second compound 10 µM, first compound 1 µM
  viability, T/C: 102%
Second compound 10 µM, first compound 3.16 µM
  viability, T/C: 98.5%
Second compound 10 µM, first compound 10 µM
  viability, T/C: 102%

## COc1cccc2c1C(=O)c1c(O)c3c(c(O)c1C2=O)CC(O)(C(=O)CO)CC3OC1CC(N)C(O)C(C)O1 (centres undefined)
Compound 0.0316 µM
  viability, T/C: 95.6% and 102% and 94.8%
Compound 0.1 µM
  viability, T/C: 84.5% and 106% and 91.1%
Compound 0.316 µM
  viability, T/C: 79.2% and 99.9% and 86.9%
Compound 1 µM
  viability, T/C: 49.4% and 91.8% and 61.5%
Compound 3.16 µM
  viability, T/C: 30% and 74.5% and 31.3%
Compound 10 µM
  viability, T/C: 12.6% and 30.7% and 10.1%
Curve of compound
  pIC50: 5.95 and 5.22 and 5.80

## Cn1ncnc1[C@H]1c2n[nH]c(=O)c3cc(F)cc(c23)N[C@@H]1c1ccc(F)cc1
Compound 0.000316 µM
  viability, T/C: 93.8% and 97.3% and 106%
Compound 0.001 µM
  viability, T/C: 88.3% and 96.2% and 93.8%
Compound 0.00316 µM
  viability, T/C: 94% and 101% and 93.7%
Compound 0.01 µM
  viability, T/C: 103% and 100% and 109%
Compound 0.0316 µM
  viability, T/C: 94.3% and 98.1% and 96.2%
Compound 0.1 µM
  viability, T/C: 79.3% and 83.4% and 61%
Curve of compound
  pIC50: < 7.00

## O=C(Nc1ccc(O)c(NS(=O)(=O)c2ccc(F)cc2)c1)c1ccc(-c2ccccc2)cc1
Compound 0.0316 µM
  viability, T/C: 108% and 103% and 104%
Compound 0.1 µM
  viability, T/C: 106% and 103% and 91.7%
Compound 0.316 µM
  viability, T/C: 104% and 99.2% and 89.1%
Compound 1 µM
  viability, T/C: 99.6% and 101% and 99.3%
Compound 3.16 µM
  viability, T/C: 108% and 105% and 96.4%
Compound 10 µM
  viability, T/C: 112% and 101% and 90.3%
Curve of compound
  pIC50: < 5.00

## CC[C@@]1(O)C(=O)OCc2c1cc1n(c2=O)Cc2cc3c(CN(C)C)c(O)ccc3nc2-1 + Cc1cccc(N(C)C(=O)C2C(O)CCN2c2nc(C)cc(C(F)(F)F)c2C#N)c1
[1]
  pIC50: 7.04
[2]
  pIC50: < 7.00
[3]
  pIC50: < 7.00
[4]
  pIC50: < 7.00
[5]
  pIC50: < 7.00
[6]
  pIC50: 7.31
Second compound 0.0316 µM, first compound 0.000316 µM
  viability, T/C: 108%
Second compound 0.0316 µM, first compound 0.001 µM
  viability, T/C: 100%
Second compound 0.0316 µM, first compound 0.00316 µM
  viability, T/C: 104%
Second compound 0.0316 µM, first compound 0.01 µM
  viability, T/C: 98.6%
[7]
  viability, T/C: 88.2%
[8]
  viability, T/C: 46.3%
Second compound 0.1 µM, first compound 0.000316 µM
  viability, T/C: 109%
Second compound 0.1 µM, first compound 0.001 µM
  viability, T/C: 101%
Second compound 0.1 µM, first compound 0.00316 µM
  viability, T/C: 103%
Second compound 0.1 µM, first compound 0.01 µM
  viability, T/C: 102%
[9]
  viability, T/C: 90%
[10]
  viability, T/C: 65.5%
Second compound 0.316 µM, first compound 0.000316 µM
  viability, T/C: 110%
Second compound 0.316 µM, first compound 0.001 µM
  viability, T/C: 104%
Second compound 0.316 µM, first compound 0.00316 µM
  viability, T/C: 94.9%
Second compound 0.316 µM, first compound 0.01 µM
  viability, T/C: 102%
[11]
  viability, T/C: 87%
[12]
  viability, T/C: 59.1%
Second compound 1 µM, first compound 0.000316 µM
  viability, T/C: 104%
Second compound 1 µM, first compound 0.001 µM
  viability, T/C: 99.5%
Second compound 1 µM, first compound 0.00316 µM
  viability, T/C: 104%
Second compound 1 µM, first compound 0.01 µM
  viability, T/C: 99.7%
[13]
  viability, T/C: 86%
[14]
  viability, T/C: 57.3%
Second compound 3.16 µM, first compound 0.000316 µM
  viability, T/C: 108%
Second compound 3.16 µM, first compound 0.001 µM
  viability, T/C: 102%
Second compound 3.16 µM, first compound 0.00316 µM
  viability, T/C: 94.1%
Second compound 3.16 µM, first compound 0.01 µM
  viability, T/C: 93%
[15]
  viability, T/C: 77.1%
[16]
  viability, T/C: 49.9%
Second compound 10 µM, first compound 0.000316 µM
  viability, T/C: 101%
Second compound 10 µM, first compound 0.001 µM
  viability, T/C: 99.2%
Second compound 10 µM, first compound 0.00316 µM
  viability, T/C: 99.2%
Second compound 10 µM, first compound 0.01 µM
  viability, T/C: 79.1%
[17]
  viability, T/C: 68.3%
[18]
  viability, T/C: 23.7%

From PubChem BioAssay AID1963830 (Molecular Pharmacology Branch, DTP, NCI, 2024)
